Patent US11129782B2, “Derivatives of PPD useful for coloring hair and skin” (National University of Singapore, priority 2017, dated 2021)

Assays:
[1] = Oxidation stability of 1% PPD patch test formulation in paraffin (mass spectrometry); format: physicochemical; details: several days in air
Excerpt: (§1) This is true even after 2 days of patch test as the test field remains colourless.

[2] = system: cysteine peptide (Ac-RFAACAA-COOH); assay: Direct Peptide Reactivity Assay, cysteine peptide; details: for % of Cysteine depletion, Avg / % of Cysteine depletion, Rep 2 / % of Cysteine depletion, Rep 3 / Reactivity Class: 1:10; for % of Cysteine depletion, Rep 1: peptide 0.02 mM : test chemical 0.2 mM (1:10); for Reactivity Class: cysteine
Procedure: For cysteine DPRA, an additional step was performed.
The mass spectrometric analysis was performed by use of a AB SCIEX QTRAP 5500 tandem mass spectrometry (MS/MS) system (AB SCIEX, Framingham, Mass., USA) operating in triple quadrupole positive mode (ESI+) equipped with an AB Sciex Turbo Ion Spray interface. Acquisition and analysis of data were performed with Analyst software ver. 1.6.2 (Applied Biosystems).

[3] = system: cysteine and lysine peptides; assay: Direct Peptide Reactivity Assay, mean of cysteine and lysine depletion (FIG. 12)
sensitized patients = assay: Patch test with 1% PPD formulation in paraffin; format: in vivo, human; details: 1% PPD patch test formulation in paraffin
Excerpt: as §1
Thus there remains a need for hair and temporary skin colourings that avoid such allergic responses and may be suitable for use in subjects who show sensitivity to conventional colouring materials.

[4] = Skin permeation in vertical Franz diffusion cells; format: in vitro ADME, porcine
Summary of the method: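 Dermatomed porcine ear skin (~1.0 mm, barrier checked by TEWL) in vertical Franz cells at 37 °C, 0.64 cm^2 area, PBS receptor, donor of 1% w/v solutions in argon-purged water (n=3). Receptor sampled over 8 h with mass balance, LCMS quantification; flux and permeability coefficients from steady-state Fick's law fits.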

HaCaT cells = assay: In vitro cell cytotoxicity (MTT) assay on HaCaT cells; format: cell-based, human; details: Homo sapiens, HaCaT; 72 h incubation; MTT
Summary of the method: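 HaCaT keratinocytes seeded at 5×10^3/well, after 24 h exposed 72 h to test compounds serially diluted from 500 μM to 1.9 μM in 10% FBS DMEM. MTT (1 mg/ml, 4 h) read at 570 nm; viability expressed as percent of untreated control.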

Nc1ccc(N)cc1 [PPD, para-phenylenediamine, reference compound]
Oxidation stability in paraffin [1]: protected against oxidation
% of Cysteine depletion, Avg ([2]; 20 min): 15.1%
% of Cysteine depletion, Rep 2 ([2]; 20 min): 14%
% of Cysteine depletion, Rep 3 ([2]; 20 min): 15.2%
% of Cysteine depletion, Rep 1 ([2]; 20 min): 16.2%
% of Cysteine depletion, Avg ([2]; 24 h): 77.6%
% of Cysteine depletion, Rep 2 ([2]; 24 h): 78%
% of Cysteine depletion, Rep 3 ([2]; 24 h): 77.2%
% of Cysteine depletion, Rep 1 ([2]; 24 h): 77.7%
Reactivity Class ([2]; 20 min): low and Low
Reactivity Class ([2]; 24 h): High
Sensitizing potential predicted from mean peptide depletion ([3]; cysteine 1:10 / lysine 1:50 model): strong sensitizer
Mean peptide depletion ([3]; mean of cysteine (1:10) and lysine (1:50), FIG. 12): 55.5%
Skin reaction of sensitized patients (sensitized patients): clear localised contact dermatitis
% Parent compound Penetrated (mean) ([4]; 1% W/V applied, 8 h): 0.162%
% converted to metabolite (mean) ([4]; 1% W/V applied, 8 h): 3.17%
Mass balance in the Franz cells ([4]; 8 h): > 99%
Jss · 10^4 (steady state flux) ([4]; mean): 4.3 mg cm^−2 h^−1
tlag (lag time) ([4]; mean): 4.2 h
recovery at 8 h, 1 % w/v ([4]; pig, 1% W/V applied, 8 h, read-out: % Parent compound Recovery (mean)): 90.3%
Papp at 8 h, 1 % w/v ([4]; pig, mean, read-out: kp · 10^5 (steady state permeability coefficient) (converted)): 1190 ×10⁻⁶ cm/s
Dm · 10^4 (diffusion coefficient in skin) ([4]; steady state, mean): 5.00 cm^−2 h^−1
Ks/d (skin-donor partition coefficient) ([4]; steady state, mean, 1% w/v in water, 8 h): 0.010
IC50 (HaCaT cells): 23.5 µM
